In US12077503B2, “Substituted cyclic amides and their use as herbicides” (FMC CORPORATION, priority 2015, dated 2024):

Columns and labels:
Format in all cases: in vivo
[1] = system: Kochia (Kochia scoparia); assay: Test A preemergence
Excerpt: (§1) Seeds of plant species selected from barnyardgrass (Echinochloa crus-galli), Kochia (Kochia scoparia), ragweed (common ragweed, Ambrosia elatior), ryegrass, Italian (Italian ryegrass, Lolium multiflorum), crabgrass, large (Digitaria sanguinalis), giant foxtail (Setaria faberii), green foxtail (Setaria viridis), morningglory (Ipomoea spp.), pigweed (Amaranthus retroflexus), velvetleaf (Abutilon theophrasti), wheat (Triticum aestivum), and corn (Zea mays) were planted into a blend of loam soil and sand and treated preemergence with a directed soil spray using test chemicals formulated in anon-phytotoxic solvent mixture which included a surfactant.
(§2) At the same time, plants selected from these crop and weed species and also blackgrass (Alopecurus myosuroides), and Galium (catchweed bedstraw, Galium aparine) were planted in pots containing the same blend of loam soil and sand and treated with postemergence applications of test chemicals formulated in the same manner. Plants ranged in height from 2 to 10 cm and were in the one- to two-leaf stage for the postemergence treatment. Treated plants and untreated controls were maintained in a greenhouse for approximately 10 d, after which time all treated plants were compared to untreated controls and visually evaluated for injury. Plant response ratings, summarized in Table A, are based on a 0 to 100 scale where 0 is no effect and 100 is complete control. A dash (-) response means no test result.

[2] = system: barnyardgrass (Echinochloa crus-galli); assay: Test A preemergence
Excerpt: as §1, §2

[3] = system: giant foxtail (Setaria faberii); assay: Test A preemergence
Excerpt: as §1, §2

[4] = system: pigweed (Amaranthus retroflexus); assay: Test A preemergence
Excerpt: as §1, §2

[5] = system: ragweed (common ragweed, Ambrosia elatior); assay: Test A preemergence
Excerpt: as §1, §2

[6] = system: ryegrass, Italian (Italian ryegrass, Lolium multiflorum); assay: Test A preemergence
Excerpt: as §1, §2

[7] = system: Galium (catchweed bedstraw, Galium aparine); assay: Test A postemergence
Excerpt: as §1, §2

[8] = system: Kochia (Kochia scoparia); assay: Test A postemergence
Excerpt: as §1, §2

[9] = system: barnyardgrass (Echinochloa crus-galli); assay: Test A postemergence
Excerpt: as §1, §2

[10] = system: blackgrass (Alopecurus myosuroides); assay: Test A postemergence
Excerpt: as §1, §2

[11] = system: corn (Zea mays); assay: Test A postemergence
Excerpt: as §1, §2

[12] = system: giant foxtail (Setaria faberii); assay: Test A postemergence
Excerpt: as §1, §2

[13] = system: pigweed (Amaranthus retroflexus); assay: Test A postemergence
Excerpt: as §1, §2

[14] = system: ragweed (common ragweed, Ambrosia elatior); assay: Test A postemergence
Excerpt: as §1, §2

[15] = system: ryegrass, Italian (Italian ryegrass, Lolium multiflorum); assay: Test A postemergence
Excerpt: as §1, §2

[16] = system: wheat (Triticum aestivum); assay: Test A postemergence
Excerpt: as §1, §2

[17] = 125 g ai/ha, Preemergence, visual injury after approximately 10 d, 0 to 100 scale where 0 is no effect and 100 is complete control
[18] = Preemergence, 500 g ai/ha, visual injury approx. 10 d
[19] = 125 g ai/ha, postemergence, visual rating after approx. 10 d, 0 to 100 scale (0 no effect, 100 complete control)
[20] = Postemergence, 500 g ai/ha, 0 to 100 scale where 0 is no effect and 100 is complete control

Cc1cc(F)ccc1NC(=O)C1C(=O)N(C)CC1c1cccc(C(F)(F)F)c1 (stereo not drawn) [Compound 575]
60: Plant response rating, Ryegrass, Italian [6, 17] | Plant response rating, Ryegrass, Italian [15, 19]
40: Pigweed plant response rating (0 to 100 scale, 0 is no effect, 100 is complete control) [4, 18] | Plant response rating, Wheat [16, 19]
100: Barnyardgrass plant response rating (0 to 100 scale, 0 is no effect, 100 is complete control) [2, 18] | Foxtail, Giant plant response rating (0 to 100 scale, 0 is no effect, 100 is complete control) [3, 18]
0: Plant response rating, Kochia [1, 17] | Plant response rating, Pigweed [4, 17] | Plant response rating, Ragweed [5, 17] | Ragweed plant response rating (0 to 100 scale, 0 is no effect, 100 is complete control) [5, 18] | Plant response rating, Kochia [8, 19] | Plant response rating, Pigweed [13, 19] | Plant response rating, Ragweed [14, 19] | Plant response rating, Ragweed [14, 20]
70: Kochia plant response rating (0 to 100 scale, 0 is no effect, 100 is complete control) [1, 18] | Plant response rating, Galium [7, 20] | Plant response rating, Blackgrass [10, 19] | Plant response rating, Corn [11, 19] | Plant response rating, Ryegrass, Italian [15, 20] | Plant response rating, Wheat [16, 20]
80: Ryegrass, Italian plant response rating (0 to 100 scale, 0 is no effect, 100 is complete control) [6, 18] | Plant response rating, Blackgrass [10, 20] | Plant response rating, Corn [11, 20]
50: Plant response rating, Galium [7, 19]
20: Plant response rating, Kochia [8, 20] | Plant response rating, Pigweed [13, 20]
90: Plant response rating, Barnyardgrass [2, 17] | Plant response rating, Foxtail, Giant [3, 17] | Plant response rating, Barnyardgrass [9, 19] | Plant response rating, Barnyardgrass [9, 20] | Plant response rating, Foxtail, Giant [12, 19] | Plant response rating, Foxtail, Giant [12, 20]

O=C1NC[C@H](c2ccc3sccc3c2)[C@H]1C(=O)Nc1cccc(F)c1F [Compound 1128]
90%: pest or weed control at 500 g/ha ([2]; Echinochloa crus-galli, pre-emergence, 240 h, 500 g ai/ha, preemergence, 0 to 100 scale where 0 is no effect and 100 is complete control, read-out: Barnyardgrass plant response rating) | pest or weed control at 500 g/ha ([3]; Setaria faberi, pre-emergence, 240 h, 500 g ai/ha, preemergence, 0 to 100 scale where 0 is no effect and 100 is complete control, read-out: Foxtail, Giant plant response rating) | pest or weed control at 500 g/ha ([9]; Echinochloa crus-galli, post-emergence, 240 h, 500 g ai/ha, postemergence, 0 to 100 scale, 0 is no effect, 100 is complete control, read-out: Barnyardgrass plant response rating) | pest or weed control at 500 g/ha ([12]; Setaria faberi, post-emergence, 240 h, 500 g ai/ha, postemergence, 0 to 100 scale, 0 is no effect, 100 is complete control, read-out: Foxtail, Giant plant response rating)
70%: pest or weed control at 500 g/ha ([7]; Galium, post-emergence, 240 h, 500 g ai/ha, postemergence, 0 to 100 scale, 0 is no effect, 100 is complete control, read-out: Galium plant response rating) | pest or weed control at 500 g/ha ([8]; Bassia scoparia, post-emergence, 240 h, 500 g ai/ha, postemergence, 0 to 100 scale, 0 is no effect, 100 is complete control, read-out: Kochia plant response rating)
0%: pest or weed control at 500 g/ha ([4]; Amaranthus retroflexus, pre-emergence, 240 h, 500 g ai/ha, preemergence, 0 to 100 scale where 0 is no effect and 100 is complete control, read-out: Pigweed plant response rating) | pest or weed control at 500 g/ha ([13]; Amaranthus retroflexus, post-emergence, 240 h, 500 g ai/ha, postemergence, 0 to 100 scale, 0 is no effect, 100 is complete control, read-out: Pigweed plant response rating) | plant injury at 500 g/ha ([16]; Triticum aestivum, post-emergence, 240 h, 500 g ai/ha, postemergence, 0 to 100 scale, 0 is no effect, 100 is complete control, read-out: Wheat plant response rating)
30%: pest or weed control at 500 g/ha ([15]; Lolium multiflorum, post-emergence, 240 h, 500 g ai/ha, postemergence, 0 to 100 scale, 0 is no effect, 100 is complete control, read-out: Ryegrass, Italian plant response rating)
40%: pest or weed control at 500 g/ha ([6]; Lolium multiflorum, pre-emergence, 240 h, 500 g ai/ha, preemergence, 0 to 100 scale where 0 is no effect and 100 is complete control, read-out: Ryegrass, Italian plant response rating)
80%: pest or weed control at 500 g/ha ([1]; Bassia scoparia, pre-emergence, 240 h, 500 g ai/ha, preemergence, 0 to 100 scale where 0 is no effect and 100 is complete control, read-out: Kochia plant response rating)
50%: pest or weed control at 500 g/ha ([5]; Ambrosia artemisiifolia, pre-emergence, 240 h, 500 g ai/ha, preemergence, 0 to 100 scale where 0 is no effect and 100 is complete control, read-out: Ragweed plant response rating) | pest or weed control at 500 g/ha ([10]; Alopecurus myosuroides, post-emergence, 240 h, 500 g ai/ha, postemergence, 0 to 100 scale, 0 is no effect, 100 is complete control, read-out: Blackgrass plant response rating) | plant injury at 500 g/ha ([11]; Zea mays, post-emergence, 240 h, 500 g ai/ha, postemergence, 0 to 100 scale, 0 is no effect, 100 is complete control, read-out: Corn plant response rating) | pest or weed control at 500 g/ha ([14]; Ambrosia artemisiifolia, post-emergence, 240 h, 500 g ai/ha, postemergence, 0 to 100 scale, 0 is no effect, 100 is complete control, read-out: Ragweed plant response rating)
